Reference: patent US8007782B2, “Combination bacteriolytic therapy for the treatment of tumors” (priority 2003, dated 2011)

Tests used:
[1] = test system: HuCC-T1 cholangiocarcinoma; assay: Tumorigenicity assay, HuCC-T1 xenografts; format: in vivo, nude mice
Description: (§1) All animal protocols were designed in accordance with the Guide for the Care and Use of Laboratory Animals (NIH Publication 86-23) and were approved by the Johns Hopkins University Institutional Animal Care and Use Committee. Six to eight week old mice were implanted subcutaneously on one flank with 3 to 6 million cancer cells. Establishment of tumors of 150 to 500 mm3 took 8 to 21 days, depending on the cell type. C. novyi-NT spores (300×106) and anti-microtubule agents were generally administered by a single intravenous injection through the tail vein in a total volume of 300 to 500 ul phosphate-buffered saline (PBS). Quantitative assessment of tumor growth was performed by measuring subcutaneous tumor grafts (major and minor axis) using electronic calipers. Tumor volume was calculated using the equation: length×width2×0.5. Progression free survival was defined as the length of time following treatment before any increase in tumor volume was observed. Mice were considered “cured” if no tumor was evident three months after treatment. Animals were weighed at least twice a week and carefully observed for signs of toxicity every day for the first week following treatment and then twice a week thereafter. At least five mice were used for each treatment arm described in the Experimental Results.
We next evaluated the responses to COBALT/HTI-286 in other murine tumor models. […]

[2] = test system: HCT116 human colorectal cancer cells; assay: Tumorigenicity assay, HCT116 xenografts in nude mice; format: in vivo; conditions: for Effect with C. novyi-NT / Effect alone: nude mice; for Effect alone: agent alone
Description: as §1
The timing, route, and dose of agents are critical for the success of any experimental therapy. When two agents are combined, the number of variables that must be tested increases exponentially. To simplify interpretation of the comparisons between various anti-microtubule agents, pilot studies with representative drugs were performed.
Eighteen agents known to interact with microtubules were each tested in this manner in nude mice harboring xenografts of HCT116 human colorectal cancer cells. At least five mice harboring tumors of 150 to 500 mm3 in size were used for each experimental arm. Two classes of responses were noted. One type of response was characterized by a rapid hemorrhagic necrosis, observed only with agents that inhibited microtubule […] (FIG. 1A, B). The other type of response was characterized by a slow regression, observed with agents that stabilized microtubules (FIG. 2A, B).

[3] = Mortality following COBALT; format: in vivo, nude mice; conditions: deaths within one week, pooled xenograft models
Description: as §1
(§2) This toxicity was observed only when the combination of C. novyi-NT spores and the drugs was administered and not with either the bacteria or the drugs alone. […] Though major tumor regressions were common, few mice died as a result of therapy (Table 2) No deaths occurred after treatment with the microtubule stabilizers plus C. novyi-NT, while 4% to 8% of mice treated with microtubule destabilizers plus C. novyi-NT died. The only other toxicity observed was transient weight loss (Table 3). Mice treated with the drugs alone lost ˜5 to 10% of their body weight within 7 days, while weight loss after treatment with C. novyi-NT plus these drugs varied from 8% to 18%. All weights recovered to pre-treatment levels within two weeks.

Weight loss after COBALT = format: in vivo, nude mice; conditions: maximum average weight loss relative to weight one day prior to treatment, HCT116 xenografts
Description: as §1, §2

C. novyi-NT = assay: Quantification of C. novyi-NT in tumors by real-time PCR; format: in vivo, C. novyi-NT in mice bearing HCT116 xenografts; conditions: versus spores without drug; HCT116 xenografts; SD printed +/−0.08 (HTI-286), +/−0.3 (docetaxel)
Protocol: Mice bearing HCT116 xenografts were treated with C. novyi-NT spores with or without HTI-286 (1.7 mg/kg) as described above. Following euthanasia 24-48 hr later, tumors were harvested, weighed, minced, and Dounce-homogenized. Genomic DNA was isolated using the Qiagen Genomic DNA Buffer Set and Genomic-tip 100/G. 25 ng of DNA was used in a PCR using the conditions described in (Vogelstein and Kinzler, 1999) The following primers specific for the C. novyi-NT phospholipase C gene were used: 5′-[…] (SEQ ID NO:1) and 5′-[…] (SEQ ID NO:2). No detectable primer dimers formed and no nonspecific amplification of mouse or xenograft genomic DNA occurred with these primers and PCR conditions. Real-time PCR was performed using an iCycler, and threshold cycle numbers were calculated using the iCycler Optical system interface software (Bio-Rad Lab, Hercules, Calif.). Averages of the threshold cycle number (Ct) of triplicate measurements per tumor were obtained, and three different tumors were studied for each treatment group. The results were expressed as the difference between the Ct of the treated tumor and the Ct of untreated controls, normalized to tumor weight.
Second, we directly tested the size of bacterial populations within tumors by measuring the number of bacteria at various times following intravenous injection of C. novyi-NT spores into mice bearing HCT116 xenografts. […]

[4] = test system: tumor blood flow in HCT116 xenografts; assay: Assessment of blood perfusion (Hoechst 33342) in HCT116 xenografts; format: in vivo, mice; conditions: HTI-286 1.7 mg/kg or docetaxel 50 mg/kg iv, 3 and 24 hr after treatment
Protocol: Three or 24 hours after treatment, mice were intravenously injected with Hoechst 33342 (40 mg/kg) and euthanized two minutes later. Tumors were cryosectioned and viewed by fluorescence microscopy after counter-staining with acridine orange (AO). Endothelial cells are stained blue when they have taken up the Hoechst 33342 dye. Adjacent sections were stained with MECA-32 monoclonal antibody, a vascular endothelium-specific marker. Arrows point towards normal blood vessels unaffected by HTI-286 treatment in overlying skin.
Mice bearing HCT116 xenografts of 300 to 500 mm3 were injected intravenously with anti-microtubule agents. At various times thereafter, they were intravenously injected with Hoechst 33342 (40 mg/kg), then euthanized two minutes later by CO2 narcosis. Tumors were fixed in Tissue-Tek OTC compound (Sakura Finetek, Torrance, Calif.) and stored at −80° C. Frozen sections 10 microns in thickness were prepared with a Leica Microsystems cryostat and counterstained with acridine orange, 7.5 ug/ml, in PBS for 5 minutes. […] At least three sections of each of three tumors, representing middle and distal parts of the tumor, were examined under fluorescence microscopy for each agent tested, and representative results are illustrated in the figures. […]

[5] = test system: Glucose Transporter-1 (Glut-1); assay: Immunohistochemistry for Glut-1 (hypoxia marker) in HCT116 xenografts; format: in vivo, mice; conditions: HTI-286 1.7 mg/kg or docetaxel 50 mg/kg iv, 6 hr after treatment
Protocol: Mice were euthanized six hours after treatment. Tumors were sectioned and H & E stained. Adjacent sections were stained for Glut-1 expression, a marker for hypoxia. Cells positive for Glut-1 appear brown. Arrows indicate examples of hemorrhage.
Paraffin sections were deparaffinized, incubated with proteinase K (Invitrogen), heated at 95° C. for 20 min in citrate buffer (pH 6), and treated with peroxidase blocking reagent (Dako). Sections were incubated with a monoclonal antibody against Glucose Transporter-1 (Glut-1, Dako) followed by a biotin-conjugated secondary antibody (Pierce). A third layer consisting of HRP-conjugated anti-biotin (DAKO) was followed by diaminobenzidine (Sigma) staining. Sections were counterstained with eosin.
Two independent tests of this hypothesis were performed. First, we directly assessed hypoxia within tumors by staining with an antibody to Glucose Transporter-1 (Glut-1). Glut-1 has been extensively studied and shown to be specifically expressed only in hypoxic regions (Airley et al., 2001).

[6] = 50 mg/kg × 1 (iv) with 3×108 C. novyi-NT spores iv

## CCC(=O)O[C@H]1C[C@H]2OC[C@@]2(OC(C)=O)[C@H]2[C@H](OC(=O)c3ccccc3)[C@]3(O)C[C@H](OC(=O)[C@H](O)[C@@H](NC(=O)OC(C)(C)C)c4ccco4)C(C)=C([C@@H](O)C(=O)[C@]12C)C3(C)C [MAC-321, 5β,20-epoxy-1,2α-,4-,7β-,10β-,13α-hexahydroxytax-11-en-9-one 4 acetate 2 benzoate 7 propionate 13-ester with (2R,3S)—N-tertbutoxycarbonyl-3-(2-furyl)isoserine]
[1]
  mice cured (number of mice): one of eight
[2]; 10 mg/kg × 1 (iv) with 3×108 C. novyi-NT spores iv
  Effect with C. novyi-NT: ++ (10% to 50% shrinkage in tumor volume relative to pre-treatment size)
[2]; 45 mg/kg × 1 (iv) with 3×108 C. novyi-NT spores iv
  Effect with C. novyi-NT: ++++ (>20% cures)
[2]; [6]
  Effect with C. novyi-NT: ++++ (>20% cures)
[2]; 60 mg/kg × 1 (iv) with 3×108 C. novyi-NT spores iv
  Effect with C. novyi-NT: ++++ (>20% cures)
[2]; 70 mg/kg × 1 (iv) with 3×108 C. novyi-NT spores iv
  Effect with C. novyi-NT: ++++ (>20% cures)
[2]; 10 mg/kg × 1 (iv)
  Effect alone: +
[2]; 45 mg/kg × 1 (iv)
  Effect alone: +++ (>50% shrinkage in tumor volume relative to pre-treatment size)
[2]; 50 mg/kg × 1 (iv)
  Effect alone: +++ (>50% shrinkage in tumor volume relative to pre-treatment size)
[2]; 60 mg/kg × 1 (iv)
  Effect alone: +++ (>50% shrinkage in tumor volume relative to pre-treatment size)
[2]; 70 mg/kg × 1 (iv)
  Effect alone: +++ (>50% shrinkage in tumor volume relative to pre-treatment size)
[2]; cured = no tumor evident three months after treatment
  mice cured (in words): no mice
[3]; drug dose 45.0 mg/kg
  # dead (treatment-related deaths): 0
[3]; drug dose 50.0 mg/kg
  # dead (treatment-related deaths): 0
[3]; drug dose 60.0 mg/kg
  # dead (treatment-related deaths): 0
[3]; drug dose 70.0 mg/kg
  # dead (treatment-related deaths): 0
Weight loss after COBALT; drug dose 60.0 mg/kg
  Weight Loss (%): 5.5%

## CC(=O)O[C@@]12CO[C@@H]1C[C@H](O)[C@@]1(C)C(=O)[C@H](O)C3=C(C)[C@@H](OC(=O)[C@H](O)[C@@H](NC(=O)OC(C)(C)C)c4ccccc4)C[C@@](O)([C@@H](OC(=O)c4ccccc4)[C@H]21)C3(C)C [docetaxel]
C. novyi-NT
  increase in number of C. novyi-NT bacteria in tumor when co-injected with drug: 1.6 fold
[2]; 12.5 mg/kg × 1 (iv) with 3×108 C. novyi-NT spores iv
  Effect with C. novyi-NT: ++ (10% to 50% shrinkage in tumor volume relative to pre-treatment size)
[2]; 25 mg/kg × 1 (iv) with 3×108 C. novyi-NT spores iv
  Effect with C. novyi-NT: +++ (>50% shrinkage in tumor volume relative to pre-treatment size)
[2]; [6]
  Effect with C. novyi-NT: ++++ (>20% cures)
[2]; 75 mg/kg × 1 (iv) with 3×108 C. novyi-NT spores iv
  Effect with C. novyi-NT: ++++ (>20% cures)
[2]; 12.5 mg/kg × 1 (iv)
  Effect alone: +
[2]; 25 mg/kg × 1 (iv)
  Effect alone: ++ (10% to 50% shrinkage in tumor volume relative to pre-treatment size)
[2]; 50 mg/kg × 1 (iv)
  Effect alone: ++++ (>20% cures)
[2]; 75 mg/kg × 1 (iv)
  Effect alone: +++ (>50% shrinkage in tumor volume relative to pre-treatment size)
[3]; drug dose 25.0 mg/kg
  # dead (treatment-related deaths): 0
[3]; drug dose 50.0 mg/kg
  # dead (treatment-related deaths): 0
[3]; drug dose 75.0 mg/kg
  # dead (treatment-related deaths): 0
[4]
  blood flow to the tumors (Hoechst 33342 labelling): no observable effects
[5]
  Glut-1 expression (hypoxia marker) in tumors: No increase
Weight loss after COBALT; drug dose 50.0 mg/kg
  Weight Loss (%): 11.0%
